Experimental data reported in patent US7855228B2, “Antibiotics targeting MreB” (The Board of Trustees of the Leland Stamford Junior …, priority 2005, dated 2010).
Converted amounts (≈) assume the structure as drawn.

Columns and labels:
[1] = tested on: P. putida NBRC14164; experiment: Determination of minimum inhibitory concentration (MIC); assay type: cell-based, Pseudomonas putida; settings: Pseudomonas putida, NBRC14164, Example 2; methods as in Example 1; read-out: MIC P. putida
Method: (§1) Determination of minimum inhibitory concentration (MIC). MICs were also determined on Mueller Hinton agar plates (0.2% beef extract, 1.75% acid digest of casein, 0.15% soluble starch, 1.5% agar, pH 7.3).
(§2) Determination of MIC Minimal inhibitory concentrations (MICs) were determined using a standard 2-fold serial dilution format on L agar plates. Ten microliters of stationary culture diluted in 0.85% NaCl to 10^6 cells/ml were spotted on per plate. […] MICs were also determined on Mueller Hinton agar plates (0.2% beef extract, 1.75% acid digest of casein, 0.15% soluble starch, 1.5% agar, pH 7.3).

[2] = tested on: E. coli MG1655; experiment: Microscopic observation of cell shape; assay type: cell-based; settings: Example 2; methods as in Example 1
Method: Microscopic observation. E. coli K-12 strain MG1655 (F^− λ^−) was grown in Lennox broth containing 1% Polypepton, 0.5% yeast extract, 0.5% NaCl, and 0.1% glucose (pH 7.2). Cells spread on a slide glass were treated with methanol for 5 min and covered with poly-L-lysine. The fixed cells were observed by the differential interference contrast system through an Axioskop 2 microscope (Carl Zeiss Co., Ltd., Oberkochen, Germany). To observe the anucleate cells, cells were stained with a 4′,6-diamidino-2-phenylindole (DAPI) solution (5 μg/ml in saline) and then observed by the fluorescence phase-contrast combined method.
The effect of each compound on E. coli cell morphology was next examined.

[3] = tested on: E. coli MG1655; experiment: Determination of minimum inhibitory concentration (MIC); assay type: cell-based; settings: Escherichia coli, MG1655, Example 2; methods as in Example 1; read-out: MIC E. coli
Method: as §1, §2

[4] = tested on: B. subtilis 168; experiment: as above; assay type: cell-based, Bacillus subtilis; settings: Bacillus subtilis, 168, Example 2; methods as in Example 1; read-out: MIC B. subtilis
Method: as §1, §2

[5] = tested on: S. aureus subsp. aureus NBRC15035; experiment: as above; assay type: cell-based, Staphylococcus aureus; settings: Staphylococcus aureus, NBRC15035, Example 2; methods as in Example 1; read-out: MIC S. aureus
Method: as §1, §2

[6] = tested on: S. typhimurium NBRC13245; experiment: as above; assay type: cell-based, Salmonella typhimurium; settings: Salmonella enterica, Example 2; methods as in Example 1; read-out: MIC S. typhimurium
Method: as §1, §2

Row | SMILES | MIC [1] [µg/mL] | Shape [2] | MIC [3] [µg/mL] | MIC [4] [µg/mL] | MIC [5] [µg/mL] | MIC [6] [µg/mL]
1 | N=C(N)SCc1ccccc1F [Compound 2-F] | > 100 | Sphere | 25 (≈ 136 µM) | > 100 | > 100 | 25 (≈ 136 µM)
2 | N=C(N)SCc1cc(Cl)ccc1Cl [2,5-Cl] | > 100 | Sphere | 12.5 (≈ 53.2 µM) | > 100 | > 100 | 25 (≈ 106 µM)
3 | N=C(N)SCc1ccccc1Br [Compound 2-Br] | > 100 | Sphere | 50 (≈ 204 µM) | > 100 | > 100 | 50 (≈ 204 µM)
4 | Cc1ccc(CSC(=N)N)cc1 [Compound 4-CH3, S-(4-methyl-benzyl)-isothiourea] | > 100 | Sphere | 25 (≈ 139 µM) | > 100 | > 100 | 50 (≈ 277 µM)
5 | CC1CN(c2c(F)c(N)c3c(=O)c(C(=O)O)cn(C4CC4)c3c2F)CC(C)N1 (stereo not drawn) [SPFX, reference compound] | 0.391 (≈ 0.996 µM) |  | 0.0244 (≈ 0.0622 µM) | 0.0244 (≈ 0.0622 µM) | 0.0488 (≈ 0.124 µM) | 0.0488 (≈ 0.124 µM)
6 | N=C(N)SCc1cccc(F)c1 [Compound 3-F] | > 100 | Sphere | 50 (≈ 271 µM) | 50 (≈ 271 µM) | > 100 | > 100
7 | N=C(N)SCc1c(Cl)cc(Cl)cc1Cl [2,4,6-Cl] | > 100 | Sphere | 100 (≈ 371 µM) | 100 (≈ 371 µM) | > 100 | > 100
8 | N=C(N)SCc1ccc(F)c(F)c1 [3,4-F] | > 100 | Sphere | 12.5 (≈ 61.8 µM) | 25 (≈ 124 µM) | 100 (≈ 494 µM) | 25 (≈ 124 µM)
9 | N=C(N)SCc1ccc(F)cc1 [Compound 4-F, S-(4-Fluoro-benzyl)-isothiourea] | > 100 | Sphere | 12.5 (≈ 67.8 µM) | 50 (≈ 271 µM) | 100 (≈ 543 µM) | 12.5 (≈ 67.8 µM)
10 | N=C(N)SCc1cccc(C(F)(F)F)c1 [Compound 3-CF3] | > 100 | Sphere | > 100 | > 100 | > 100 | > 100
11 | N=C(N)SCc1ccccc1C(F)(F)F [Compound 2-CF3] | > 100 | Sphere | > 100 | > 100 | > 100 | > 100
12 | N=C(N)SCc1ccccc1Cl [Compound 2-Cl] | > 100 | Sphere | 12.5 (≈ 62.3 µM) | > 100 | > 100 | 25 (≈ 125 µM)
13 | N=C(N)SCc1c(F)cccc1F [2,6-F] | > 100 | Sphere | 50 (≈ 247 µM) | > 100 | > 100 | 50 (≈ 247 µM)
14 | I.Nc1nc(-c2ccccc2)cs1 [TZ, reference compound] | > 100 | Rod | > 100 | > 100 | > 100 | > 100
15 | COc1ccc(CSC(=N)N)cc1 [Compound 4-MeO] | > 100 | Sphere | > 100 | > 100 | > 100 | > 100
16 | N=C(N)SCc1c(Cl)cccc1Cl [2,6-Cl] | > 100 | Sphere | 12.5 (≈ 53.2 µM) | > 100 | > 100 | 25 (≈ 106 µM)

Row | SMILES | MIC [1] [µg/mL] | Shape [2] | MIC [3] [µg/mL] | MIC [4] [µg/mL] | MIC [5] [µg/mL] | MIC [6] [µg/mL]
17 | N=C(N)SCc1c(F)c(F)c(F)c(F)c1F [pentaF] | > 100 | Sphere | > 100 | > 100 | > 100 | > 100
18 | N=C(N)SCc1ccc(Cl)nc1 [4-Cl Pyr] | > 100 | Sphere | 100 (≈ 496 µM) | > 100 | > 100 | > 100
19 | N=C(N)SCc1ccc([N+](=O)[O-])cc1 [Compound 4-NO2, S-(4-Nitro-benzyl)-isothiourea] | > 100 | Sphere | 25 (≈ 118 µM) | 25 (≈ 118 µM) | > 100 | 50 (≈ 237 µM)
20 | CC1(C)S[C@@H]2[C@H](NC(=O)c3ccccc3)C(=O)N2[C@H]1C(=O)O [PCG, reference compound] | > 100 | Fil | 50 (≈ 156 µM) | 0.0122 (≈ 0.0381 µM) | 0.0977 (≈ 0.305 µM) | 12.5 (≈ 39 µM)
21 | N=C(N)SCc1cccc(Cl)c1 [Compound 3-Cl] | > 100 | Sphere | 50 (≈ 249 µM) | 50 (≈ 249 µM) | > 100 | > 100
22 | O=C(N[C@H](CO)[C@H](O)c1ccc([N+](=O)[O-])cc1)C(Cl)Cl [CP, reference compound] | 50 (≈ 155 µM) | Rod | 6.25 (≈ 19.3 µM) | 3.13 (≈ 9.69 µM) | 12.5 (≈ 38.7 µM) | 6.25 (≈ 19.3 µM)
23 | N=C(N)SCc1ccc(Br)cc1 [Compound 4-Br, S-(4-Bromo-benzyl)-isothiourea] | > 100 | Sphere | 3.13 (≈ 12.8 µM) | > 100 | > 100 | 6.25 (≈ 25.5 µM)
24 | CC1(C)S[C@@H]2[C@H](NC(=O)C(N)c3ccccc3)C(=O)N2[C@H]1C(=O)O (stereo partly drawn) [ABPC, reference compound] | > 100 | Fil | 3.13 (≈ 8.96 µM) | 0.0488 (≈ 0.14 µM) | 0.195 (≈ 0.558 µM) | 1.56 (≈ 4.46 µM)
25 | N=C(N)SCc1cc(F)c(Cl)cc1Cl [2,4-Cl 5-F, S-(2,4-Dichloro, and 5-fluoro-benzyl)-isothiourea] | > 100 | Sphere | 0.78 (≈ 3.08 µM) | 12.5 (≈ 49.4 µM) | > 100 | 12.5 (≈ 49.4 µM)
26 | N=C(N)SCc1cc(Cl)cc(Cl)c1 [3,5-Cl] | > 100 | Sphere | > 100 | > 100 | > 100 | > 100
27 | N=C(N)SCc1ccc(C(F)(F)F)cc1 [Compound 4-CF3, S-(4-Trifluoromethyl-benzyl)-isothiourea] | > 100 | Sphere | 50 (≈ 213 µM) | > 100 | > 100 | > 100
28 | N=C(N)SCc1ccc(I)cc1 [Compound 4-I, S-(4-Iodo-benzyl)-isothiourea] | > 100 | Sphere | 12.5 (≈ 42.8 µM) | > 100 | > 100 | 25 (≈ 85.6 µM)
29 | N=C(N)SCc1cccc(Cl)c1Cl [2,3-Cl] | > 100 | Sphere | 25 (≈ 106 µM) | 100 (≈ 425 µM) | 25 (≈ 106 µM) | 25 (≈ 106 µM)
30 | N=C(N)SCc1ccc(Cl)cc1Cl [2,4-Cl, S-(2,4-Dichloro-benzyl)-isothiourea] | > 100 | Sphere | 1.56 (≈ 6.63 µM) | > 100 | > 100 | 1.56 (≈ 6.63 µM)
31 | CN(C)[C@@H]1C(O)=C(C(N)=O)C(=O)[C@@]2(O)C(O)=C3C(=O)c4c(O)cccc4[C@@](C)(O)C3CC12 (stereo partly drawn) [TC, reference compound] |  | Rod |  |  |  | 
